# Measurements taken from patent US4409238A, “Insecticides and insecticidal compositions” (Kuraray Co., Ltd., priority 1977, dated 1983).
# Tests used:
# guppies = assay: Fish toxicity test (Test Example 6); format: in vivo; details: female guppies, 48 hours, 25° C.; concentration at which 90% or more were killed
# Method: To 5 l of water were added 250 mg of sorpol SM-200 (registered trademark, Toho Chemical Co., Ltd.) or Tween-20 (commercial product) as an emulsifier (surfactant) as well as 2.5 ml of an acetone solution containing one of the test compounds in a predetermined concentration. The mixture was stirred well to prepare a test water. Ten female guppies from 3 to 4 months of age were released into the test water and maintained at 25° C. The concentration of the test compound at which 90% or more of the guppies were killed during the ensuring 48 hours was determined. (This concentration is referred to as LC90).
# [1] = Light stability test (Test Example 4); format: physicochemical; details: direct sunlight between glass plates, 12° C., relative to aluminum foil-covered control; for remaining at 4 h: read-out: Residue (%) Exposure time 4 hrs.; for remaining at 8 h: read-out: Residue (%) Exposure time 8 hrs.
# Method: Into 2.0 ml of acetone were dissolved 80 mg of each test compound. A 5 μl portion of the solution was taken and spread on a glass plate (Micro Standard Cover Glass, 18 m/m No. 1, 200 pcs, Matsunami Glass Ind., Ltd.) and the acetone was evaporated. Then, a similar glass plate was superimposed on the above plate in such a manner that the test liquid was sandwitched. The specimen was exposed to direct sunlight at an atmospheric temperature of 12° C. for a predetermined exposure time. As an unexposed control, a similar specimen was covered with an aluminum foil. The test liquid was washed away with 1.0 ml of methanol containing 0.04% of dioctyl phthalate as an internal reference and high-speed liquid chromatography was carried out on the washings to determine the residual amount of the test compound. The residue (%) was calculated with the value for the aluminum foil-covered control specimen as the standard.
# [2] = tested on: houseflies (Musca domestica); assay: Mortality test against houseflies by topical application method (Test Example 1); format: in vivo; details: female adult houseflies, 24 hours, 25° C.
# Method: Each test compound was accurately weighed and a 1% solution and a 0.1% solution of the sample in acetone were prepared. A 1 μl portion of either of the above solutions was micropipetted onto the thoracic dorsal part of each female adult housefly (Musca domestica) under ether anaesthesia and the fly was released in a high-walled dish together with feed. The dish was covered with a metal-wire net and maintained at 25° C. After 24 hours, the test flies were inspected for deaths and the mortality (%) was calculated. Thirty test flies were used per concentration group.
# green rice leafhoppers = assay: Spray test on rice seedlings against green rice leafhoppers (Utility Example 1); format: in vivo, green rice leafhoppers (Nephotettix cincticeps); details: 30% emulsifiable concentrate (Formulation Example 5) diluted 300-fold, 10 ml/pot, 24 hours
# Method: To 30 parts of each of Compounds [1], [2], [5] to [13] and [17] to [19] was added 50 parts of xylene and 20 parts of Sorpol SM-200 (a surfactant, trademark of Toho Chemical Co., Ltd.). The mixture was stirred well and dissolved to obtain a 30% emulsifiable concentrate.
# The emulsifiable concentrate prepared from Compounds [1], [2], [6], [7], [9], [10], [12] and [13] in Formulation Example 5 were each diluted 300-fold with water. Then, each of the dilutions was sprayed over rice seedlings 25 days after sowing at the rate of 10 ml/pot. The pot was covered with a wire-net and 15 green rice leafhoppers were released under the net. After 24 hours, the leafhoppers were examined for deaths. The mortality (%) was not less than 90% for each of Compounds [1], [2], [6], [7], [9], [10], [12] and [13].
# [3] = Hydrolysis resistance test (Test Example 5); format: physicochemical; details: acetone/water, reflux for 2 days; read-out: Residue (%)
# Method: Into about 8 ml of acetone were dissolved 100 mg of each test compound and, then, 1.0 g of water was added to this solution to prepare a mixed solution. This mixed solution was refluxed for 2 days. After concentration to about one half of the original volume and with the addition of dioctyl phthalate as an internal reference, the residual amount of the compound was determined by high-speed liquid chromatography. The residue (%) was then calculated.
# [4] = tested on: cockroaches (Blattella germanica); assay: Mortality test against cockroaches by topical application method (Test Example 3); format: in vivo; details: 1 μl of 1% solution in acetone, female cockroaches, 24 hours, 25° C.
# Method: Each test compound was accurately weighed and made in a 1% solution in acetone. Then, 1 μl of the above solution was micropipetted onto the abdominal part of each female cockroach (Blattella germanica) under ether anaesthesia. The roaches were released in a high-walled dish together with feed and, after the disk was covered with a metal wire net, same was maintained at 25° C. Fifteen roaches per group were employed. After 24 hours, the test roaches were inspected for deaths and the mortality (%) for each group was calculated.
# house-flies = assay: Settling mist mortality test against houseflies, oil preparations of Formulation Example 3 (Utility Example 4); format: in vivo, houseflies (Musca domestica); details: oil preparation with 0.1 part compound and 0.08 part permethrin per 100 parts, 24 hours
# Method: To 0.1 part of each of Compounds [1] to [28] was added 0.08 part of permethrin, followed by the addition of a sufficient amount of kerosene to make 100 parts. The mixture was stirred to obtain an oil preparation of each compound.
# (§1) By the settling mist method, a mortality test against house-flies was carried out using the oil preparations obtained in Formulation Example 3 from Compounds [1], [2], [5] to [11] and [17]. After 24 hours, the flies were examined for deaths. The mortality (%) was not less than 90% for each of Compounds [1], [2], [5] to [11] and [17].
# houseflies = assay: Settling mist mortality test against houseflies, oil preparations of Formulation Example 2 (Utility Example 3); format: in vivo, houseflies (Musca domestica); details: oil preparation with 0.1 part compound and 0.1 part resmethrin per 100 parts, 24 hours
# Method: To 0.1 part of each of Compounds [1] to [17] was added 0.1 part of resmethrin, followed by the addition of a sufficient amount of kerosene to make 100 parts. The mixture was stirred to obtain an oil preparation of each compound.
# as §1, with “houseflies” for “house-flies”, “made” for “obtained”, “2” for “3”
# [5] = tested on: green rice leafhoppers (Nephotettix cincticeps); assay: Mortality test against green rice leafhoppers by topical application method (Test Example 2); format: in vivo; details: 0.1% solution in acetone, female adults, 24 hours, 25° C.
# Method: Each test compound was accurately weighed and an 0.1% solution in acetone was prepared. Female adults of green rice leafhopper (Nephotettix cincticeps) were anaesthetized with carbon dioxide gas and 0.5 µl of the above solution was micropipetted onto the thoracic abdominal part of each leafhopper. Then, the test leafhoppers were kept at 25° C. with access to rice plant seedlings. Each group comprised 15 green rice leafhoppers. After 24 hours, the leafhoppers were inspected for deaths and the mortality (%) was calculated for each compound.
SMILES,LC90 (guppies),remaining at 4 h [1],remaining at 8 h [1],Mortality (%) 1 μg/fly [2],Mortality (%) 10 μg/fly [2],Mortality (%) (green rice leafhoppers),remaining at 48 h [3],"mortality at 1 %, 0.01 mg [4]",Mortality (%) (house-flies),Mortality (%) (houseflies),mortality at 0.1 % [5]
"C=CCC1=C(C)C(OC(=O)C2C(C=C(C)C)C2(C)C)CC1=O (stereo not drawn) [Allethrin, reference compound]",Not more than 0.5 ppm,35%,17%,50%,–,–,–,–,–,–,–
"CC(C)C(CC=C(Cl)Cl)C(=O)OCc1cccc(Oc2ccccc2)c1 (stereo not drawn) [Compound [5], 3-Phenoxybenzyl α-(3,3-dichloroallyl)isovalerate]",–,99%,98%,100%,100%,–,–,–,–,–,–
"CC(C)C(CC=C(Cl)Cl)C(=O)OC(C#N)c1cccc(Oc2ccccc2)c1 (stereo not drawn) [Compound [6], α-Cyano-3-phenoxybenzyl α-(3,3-dichloroallyl)isovalerate]",–,92%,92%,100%,100%,not less than 90%,> 90%,100%,–,–,–
"C#CC(OC(=O)C(CC=C(Cl)Cl)C(C)C)c1cccc(Oc2ccccc2)c1 (stereo not drawn) [Compound [7], α-Ethynyl-3-phenoxybenzyl α-(3,3-dichloroallyl)isovalerate]",–,96%,96%,90%,100%,not less than 90%,> 90%,80%,–,–,–
"CC(C)C(CC=C(Br)Br)C(=O)OCc1cccc(Oc2ccccc2)c1 (stereo not drawn) [Compound [8], 3-Phenoxybenzyl α-(3,3-dibromoallyl)isovalerate]",–,–,–,100%,100%,–,–,–,–,–,–
"CC(C)C(CC=C(Br)Br)C(=O)OC(C#N)c1cccc(Oc2ccccc2)c1 (stereo not drawn) [Compound [9], α-Cyano-3-phenoxybenzyl α-(3,3-dibromoallyl)isovalerate]",–,–,–,100%,100%,not less than 90%,–,–,–,–,–
"C#CC(OC(=O)C(CC=C(Br)Br)C(C)C)c1cccc(Oc2ccccc2)c1 (stereo not drawn) [Compound [10], α-Ethynyl-3-phenoxybenzyl α-(3,3-dibromoallyl)isovalerate]",≥ 10 ppm,97%,97%,100%,100%,not less than 90%,–,–,–,–,–
"CC(C)(CC=C(Cl)Cl)CC(=O)OCc1cccc(Oc2ccccc2)c1 [Compound [11], 3-Phenoxybenzyl β-(3,3-dichloroallyl)isovalerate]",–,100%,96%,100%,100%,–,> 90%,–,–,–,–
"CC(C)(CC=C(Cl)Cl)CC(=O)OC(C#N)c1cccc(Oc2ccccc2)c1 (stereo not drawn) [Compound [12], α-Cyano-3-phenoxybenzyl β-(3,3-dichloroallyl)isovalerate]",–,92%,90%,100%,100%,not less than 90%,> 90%,–,–,–,–
"C#CC(OC(=O)CC(C)(C)CC=C(Cl)Cl)c1cccc(Oc2ccccc2)c1 (stereo not drawn) [Compound [13], α-Ethynyl-3-phenoxybenzyl β-(3,3-dichloroallyl)isovalerate]",–,100%,100%,90%,100%,not less than 90%,–,–,–,–,–
"CC(C)(CC(=O)OCc1cccc(Oc2ccccc2)c1)C(Cl)C=C(Cl)Cl (stereo not drawn) [Compound [17], 3-Phenoxybenzyl β-(1,3,3-trichloroallyl)isovalerate]",–,100%,100%,100%,100%,–,–,–,not less than 90%,not less than 90%,–
"CC(C)(CC(=O)OC(C#N)c1cccc(Oc2ccccc2)c1)C(Cl)C=C(Cl)Cl (stereo not drawn) [Compound [18], α-Cyano-3-phenoxybenzyl β-(1,3,3-trichloroallyl)isovalerate]",–,98%,97%,–,100%,–,> 90%,–,–,–,–
"C#CC(OC(=O)CC(C)(C)C(Cl)C=C(Cl)Cl)c1cccc(Oc2ccccc2)c1 (stereo not drawn) [Compound [19], α-Ethynyl-3-phenoxybenzyl β-(1,3,3-trichloroallyl)isovalerate]",–,97%,92%,–,100%,–,–,–,–,–,–
C=CCC(C(=O)OCc1cccc(Oc2ccccc2)c1)C(C)C (stereo not drawn) [reference compound],–,–,–,0%,0%,–,–,–,–,–,–
CC(C)=CCC(C(=O)OCc1cccc(Oc2ccccc2)c1)C(C)C (stereo not drawn) [reference compound],–,–,–,0%,–,–,–,–,–,–,–
CC(C)C(C=C(Cl)Cl)C(=O)OCc1cccc(Oc2ccccc2)c1 (stereo not drawn) [reference compound],–,–,–,–,–,–,–,–,–,–,40%
